The values that follow are results of earlier work, collected in US20050209250A1, “Therapeutic combinations of atypical antipsychotics with corticotropin releasing factor antagonists” (Pfizer Inc, priority 2004, published 2005).

For orientation: half-life means how long it takes for the measured level to halve.

Experiment in series [1]: not given
This is another data set of the same source.

`Cl.O.O=C1Cc2cc(CCN3CCN(c4nsc5ccccc45)CC3)c(Cl)cc2N1` [ziprasidone, 5-[2-[4-(1,2-benzisothiazol-3-yl)piperazin-1-yl]ethyl]-6-chloroindolin-2-one hydrochloride hydrate]: the half-life (in vivo) is 6 to 7 h. For the same compound, for the setting “taken with food”, the Oral bioavailability result was “approximately 60%”. Also, in series [1], the protein binding entry was “extensive”.
